This assay deals with BaF3 V617F cells; UKE-1. Description: Proliferation Assay (Cell Titer-Glo; Example 7). It counts as cell-based. To be noted: proliferation 72 hours, inhibit JAK2 activity, cell line (BaF3 V617F or UKE-1) not stated. The procedure:
BaF3 V617F cells are maintained and plated in RPMI with 10% FBS. Plating density for these cells is 1×10^5 cells/mL.
UKE-1 are maintained and plated in Iscove's DMEM containing 10% FBS, 10% equine serum, 1% penicillin/streptomycin and 1 uM hydrocortisone. Plating density for these cells is 0.4×10^6 cells/mL
The cells were resuspended in a corresponding medium at a required cell density (see above). 100μ of cell suspension was added to each well of a flat bottom 96 well white plate. The compound was serially diluted in DMSO from 5 mM in 3-fold dilutions, and then diluted 1:250 in the RPMI 1640 medium containing 5% FBS and pen/strep. 100 μL of resulting 2× compound solution was added per well in duplicate and the cells were allowed to proliferate for 72 hours at 37° C.
Proliferation was measured using Cell Titer-Glo. The substrate was thawed and allowed to come to room temperature. After removal of top 100 μL of medium from each well, 100 μL of the premixed Cell Titer-Glo reagent was added to each well. The plates were mixed on an orbital shaker for three minutes to induce lysis and incubated at ambient temperature for an additional five minutes to allow the signal to equilibrate. The Luminescence was read on the Wallac Plate Reader.
The results of the ability of the compounds of the invention to inhibit JAK2 activity, when tested in the above assay, are shown in the following Table XI wherein the level of activity (i.e., the IC50) for each compound is indicated in Table XI. The compound numbers in Table XI refers to the compounds disclosed herein as being prepared by the methods disclosed herein: […]
On the technique in general: In ATP-based viability assays light output follows the ATP content of the culture.

pIC50: −log10 of the molar value.

Broadly, the pIC50 is −log10 of the IC50, conventionally taken in molar units. Lower therefore signals a high IC50. “N2-[3,4-Dimethyl-4-(2-(4-morpholinyl)ethoxy)phenyl]-N4-[4-((N-cyclopropylamino)sulfonylamino)methylphenyl]-5-methyl-2,4-pyrimidinediamine [II-174]” gave a pIC50 of 6.90.
As for `CCc1cnc(Nc2cc(C)c(OC)c(C)c2)nc1Nc1ccc(CNS(=O)(=O)C2CC2)cc1` [II-81, N4-[4-(N-Cyclopropylsulfonylamino)methylphenyl]-N2-(3,5-dimethyl-4-methoxyphenyl)-5-ethyl-2,4-pyrimidinediamine], the pIC50 is 5.96.
In turn, `CN1CCN(c2ccc(Nc3ncc(Cl)c(Nc4ccc(CCNS(=O)(=O)C5CC5)cc4)n3)cc2)CC1` [II-51, 5-Chloro-N4[4-(N-cyclopropylsulfonylamino)ethylphenyl]-N2-[4-(4-methylpiperazino)phenyl]-2,4-pyrimidinediamine] showed a negative logarithm of the IC50 (pIC50) of 5.97.
For `CN1CCN(c2ccc(Nc3ncc(C(F)(F)F)c(Nc4ccc(CNS(=O)(=O)C5CC5)cc4)n3)cc2)CC1` [II-127, N4-[4-(N-Cyclopropylsulfonylamino)methylphenyl]-N2-[4-(4-methyl-1-piperazinyl)phenyl]-5-trifluoromethyl-2,4-pyrimidinediamine], the pIC50 was 6.47.
The compound `CCOc1c(C)cc(Nc2ncc(C)c(Nc3ccc(CNS(=O)(=O)C4CC4)cc3)n2)cc1C` [II-214, 5-Methyl-N4-[4-(N-cyclopropylsulfonylamino)methylphenyl]-N2-[3,5-dimethyl-4-ethoxyphenyl]-2,4-pyrimidinediamine] showed a pIC50 of 7.26.
Consider `Cc1cnc(Nc2ccc(N3CCN(C)CC3)cc2)nc1Nc1ccc(CNS(=O)(=O)NC2CC2)cc1` [II-171, N4-[4-((N-Cyclopropylamino)sulfonylamino)methylphenyl]-5-methyl-N2-[4-(4-methyl-1-piperazinyl)phenyl]-2,4-pyrimidinediamine], for which the pIC50 was 6.13.
Regarding “5-Bromo-N4-[3-(N-tert-butylsulfonyl)phenyl]-N2-[4-(4-methylpiperazine)-phenyl]-2,4-pyrimidinediamine [I-18]”, the pIC50 was 6.08.
Under `Cc1nc2cc(Nc3ncc(Cl)c(Nc4cccc(CNS(=O)(=O)C5CC5)c4)n3)ccc2[nH]1` [III-7, 5-Chloro-N4-[3-(N-cyclopropylsulfonylaminomethyl)phenyl]-N2-[2-methylbenzamidazol-5-yl]-2,4-pyrimidinediamine] stands 6.19.
As for `Cc1cc(N2CCN(C)CC2)ccc1Nc1ncc(Cl)c(Nc2ccc(CCNS(=O)(=O)C3CC3)cc2)n1` [II-52, 5-Chloro-N4[4-(N-cyclopropylsulfonylamino)ethylphenyl]-N2-[4-(4-methylpiperazino)-2-methylphenyl]-2,4-pyrimidinediamine], the figure is 5.21; as for `CCOc1c(C)cc(Nc2ncc(C)c(Nc3ccc(CNS(=O)(=O)NC4CC4)cc3)n2)cc1C` [II-163, N4-[4-((N-Cyclopropylamino)sulfonylamino)methylphenyl]-N2-(3,5-dimethyl-4-ethoxyphenyl)-5-methyl-2,4-pyrimidinediamine], 7.20; as for `CS(=O)(=O)N1CCN(c2ccc(Nc3ncc(Cl)c(Nc4ccc(CCNS(=O)(=O)C5CC5)cc4)n3)c(C(F)(F)F)c2)CC1` [II-55, 5-Chloro-N4[4-(N-cyclopropylsulfonylamino)ethylphenyl]-N2-[4-(4-methylsulfonylpiperazino)-2-trifluoromethylphenyl]-2,4-pyrimidinediamine], 5.05.
Under “5-Chloro-N4-[4-(N-Cyclopropylsulfonylamino)methylphenyl]-N2-[3-methyl-4-[(1S,4S)-5-methyl-2,5-diazabicyclo[2.2.1]hept-2-yl]phenyl]-2,4-pyrimidinediamine [II-185]” stands 6.96; under `CN1CCC(c2ccc(Nc3ncc(Cl)c(Nc4cccc(S(=O)(=O)NC(C)(C)C)c4)n3)cc2)CC1` [I-17, 5-Chloro-N4-[3-(N-tert-butylsulfonyl)phenyl]-N2-[4-(N-methylpiperidin-4-yl)phenyl]-2,4-pyrimidinediamine], 6.00; under “(1R)—N2-(3,5-Dichloro-4-methoxyphenyl))-5-methyl-N4-[1-(methylsulfonyl)aminoindan-6-yl]-2,4-pyrimidinediamine [V-13]”, 4.72.
`Cc1cc(Nc2ncc(Cl)c(Nc3ccc(CNS(=O)(=O)C4CC4)cc3)n2)cc(C)c1OC(C)C` [II-220, 5-Chloro-N4-[4-(N-cyclopropylsulfonylamino)methylphenyl]-N2-[3,5-dimethyl-4-(2-propoxy)phenyl]-2,4-pyrimidinediamine] had a pIC50 of 6.92.
Under `CCCN1CCN(c2ccc(Nc3ncc(C)c(Nc4ccc(CCNS(=O)(=O)C5CC5)cc4)n3)c(C(F)(F)F)c2)CC1` [II-71] stands 5.85; under `CN1CCN(c2ccc(Nc3nccc(Nc4cccc(S(=O)(=O)NC(C)(C)C)c4)n3)cc2)CC1` [I-19, N4-[3-(N-tert-butylsulfonyl)phenyl]-N2-[4-(4-methylpiperazine)-phenyl]-2,4-pyrimidinediamine], 6.22; under `CCCOc1c(C)cc(Nc2ncc(C)c(Nc3ccc(CNS(=O)(=O)NC4CC4)cc3)n2)cc1C` [II-165, N4-[4-((N-Cyclopropylamino)sulfonylamino)methylphenyl]-N2-(3,5-dimethyl-4-propoxyphenyl)-5-Methyl-2,4-pyrimidinediamine], 6.49.
As for `CCOc1c(C)cc(Nc2ncc(Cl)c(Nc3ccc(CNS(=O)(=O)C4CC4)cc3C)n2)cc1C` [II-151, 5-Chloro-N2-(3,5-dimethyl-4-ethoxyphenyl)-N4-[2-methyl-4-(N-cyclopropylsulfonylamino)methylphenyl]-2,4-pyrimidinediamine], the figure is 6.40.
`Cc1cc(CNS(=O)(=O)C2CC2)ccc1Nc1nc(Nc2ccc(N3CCN(C)CC3)cc2)ncc1Cl` [II-152, 5-Chloro-N4-[2-methyl-4-(N-cyclopropylsulfonylamino)methylphenyl]-N2-[4-(4-methyl-1-piperazinyl)phenyl]-2,4-pyrimidinediamine] gave a pIC50 of 6.45.
As to `CCc1cnc(Nc2cc(C)c(OC)c(Cl)c2)nc1Nc1ccc(CNS(=O)(=O)C2CC2)cc1` [II-83, N2-(3-Chloro-4-methoxy-5-methylphenyl)-N4-[4-(N-cyclopropylsulfonylamino)methylphenyl]-5-ethyl-2,4-pyrimidinediamine], the pIC50 is 5.86.
Take `O=S(=O)(NCc1ccc(Nc2nc(Nc3ccc(-c4cccnc4)cc3)ncc2Cl)cc1)C1CC1` [II-193, 5-Chloro-N4-[4-(N-cyclopropylsulfonylamino)methylphenyl]-N2-[4-(3-pyridinyl)phenyl]-2,4-pyrimidinediamine]: the pIC50 was 5.89.
As for `COc1cc(Nc2ncc(Cl)c(Nc3ccc(CNS(=O)(=O)C4CC4)cc3)n2)cc(Cl)c1OC` [II-200, 5-Chloro-N4-[4-(N-cyclopropylsulfonylamino)methylphenyl]-N2-[3,4-dimethoxy-5-chlorophenyl]-2,4-pyrimidinediamine], the figure is 6.56; as for `CCS(=O)(=O)N1CCc2cc(Nc3nc(Nc4cc(C)c(OC)c(C)c4)ncc3F)ccc2C1` [VIII-10, N4-[(N-ethylsulfonyl)-1,2,3,4-tetrahydroisoquinolin-6-yl]-N2-(3,5-dimethyl-4-methoxy)phenyl-5-fluoro-2,4-pyrimidinediamine], 6.14; as for `Cc1cnc(Nc2ccc(N3CCN(C)CC3)cc2F)nc1Nc1ccc(CCNS(=O)(=O)C2CC2)cc1` [II-73], 6.23.
“5-Chloro-N2-[3,4-dimethyl-4-(2-(4-morpholinyl)ethoxy)phenyl]-N4-[2-methyl-4-((N-cyclopropylamino)sulfonylamino)methylphenyl]-2,4-pyrimidinediamine [II-183]” gave a negative logarithm of the IC50 (pIC50) of 6.85.
As for “5-Chloro-N4-[3-(N-tert-butylsulfonyl)phenyl]-N2-[3,4-trimethyl-4-methoxyphenyl]-2,4-pyrimidinediamine [I-16]”, the figure is 4.75.
On to `Cc1cc(CNS(=O)(=O)NC2CC2)ccc1Nc1nc(Nc2ccc(N3CCN(C)CC3)nc2)ncc1Cl` [II-182, 5-Chloro-N4-[2-methyl-4-((N-cyclopropylamino)sulfonylamino)methylphenyl]-N2-[6-(4-methyl-1-piperazinyl)-3-pyridinyl]-2,4-pyrimidinediamine], for which the pIC50 was 6.15.
For `Cc1cnc(Nc2ccc(N3CCN(C4CC5CCC4C5)CC3)c(F)c2)nc1Nc1ccc(CNS(=O)(=O)C2CC2)cc1` (stereo not shown) [II-78, N-(4-(2-(4-(4-(bicyclo[2.2.1]heptan-2-yl)piperazin-1-yl)-3-fluorophenylamino)-5-methylpyrimidin-4-ylamino)benzyl)cyclopropanesulfonamide], the pIC50 was 6.43.
Turning to `CCNS(=O)(=O)NCc1ccc(Nc2nc(Nc3ccc(C4CCN(C)CC4)cc3)ncc2C)cc1` [II-124, N4-[(4-(Ethylamino)sulfonylamino)methylphenyl]-5-methyl-N2-[4-(1-methyl-4-piperidinyl)pheny]-2,4-pyrimidinediamine], the pIC50 was 5.94.
On to `CCN1CCN(c2ccc(Nc3ncc(C)c(Nc4ccc(CNS(=O)(=O)N(C)C)cc4)n3)cc2)CC1` [II-107, N4-[(4-(Dimethylamino)sulfonylamino)methylphenyl]-5-methyl-N2-[4-(4-ethyl-1-piperazinyl)phenyl]-2,4-pyrimidinediamine], for which the pIC50 was 6.50.

(Values after patent US8304422B2, “Compositions and methods for inhibition of the JAK pathway” (Rigel Pharmaceuticals, Inc., priority 2007, dated 2012).)
